According to publication PMC8509773, “3-Pyridinylidene Derivatives of Chemically Modified Lupane and Ursane Triterpenes as Promising Anticancer Agents by Targeting Apoptosis” (International Journal of Molecular Sciences, 2021):

Assays:
Experiment in all cases: NCI-60 SRB screening (one-dose and five-dose)
Format in all cases: cell-based, human
786-0 = settings: 786-0, 10 μM, 48 h
Method: (§1) The compounds were added at a single concentration and the cell cultures were incubated for 48 h. The end point determinations were made with a protein binding dye, sulforhodamine B (SRB). […] The percentage of growth was evaluated spectrophotometrically versus controls not treated with test agents after 48-h exposure and using SRB protein assay to estimate cell viability or growth. […] Furthermore, mean graph midpoints (MG_MID) were calculated for each of the parameters, giving an average activity parameter over all cell lines for the tested compound. For the MG_MID calculation, insensitive cell lines were included with the highest concentration tested.

A549/ATCC = settings: 10 μM, 48 h
Method: as §1

ACHN = settings: 10 μM, 48 h
Method: as §1

BT-549 = settings: BT-549, 10 μM, 48 h
Method: as §1

CAKI-1 = settings: CAKI-1, 10 μM, 48 h
Method: as §1

CCRF-CEM = settings: 10 μM, 48 h
Method: as §1

DU-145 = settings: DU-145, 10 μM, 48 h
Method: as §1

HCC-2998 = settings: HCC-2998, 10 μM, 48 h
Method: as §1

HCT-116 = settings: HCT-116, 10 μM, 48 h
Method: as §1

HCT-15 = settings: HCT-15, 10 μM, 48 h
Method: as §1

HL-60(TB) = settings: 10 μM, 48 h
Method: as §1

HOP-62 = settings: HOP-62, 10 μM, 48 h
Method: as §1

HS 578T = settings: 10 μM, 48 h
Method: as §1

HT29 = settings: HT29, 10 μM, 48 h
Method: as §1

K-562 = settings: K-562, 10 μM, 48 h
Method: as §1

KM-12 = settings: KM-12, 10 μM, 48 h
Method: as §1

MALME-3M = settings: 10 μM, 48 h
Method: as §1

MCF7 = settings: MCF7, 10 μM, 48 h
Method: as §1

MDA-MB-231/ATCC = settings: 10 μM, 48 h
Method: as §1

MDA-MB-435 = settings: MDA-MB-435, 10 μM, 48 h
Method: as §1

MDA-MB-468 = settings: MDA-MB-468, 10 μM, 48 h
Method: as §1

NCI-H226 = settings: NCI-H226, 10 μM, 48 h
Method: as §1

NCI-H322M = settings: 10 μM, 48 h
Method: as §1

NCI-H460 = settings: NCI-H460, 10 μM, 48 h
Method: as §1

NCI-H522 = settings: NCI-H522, 10 μM, 48 h
Method: as §1

NCI/ADR-RES = settings: 10 μM, 48 h
Method: as §1

OVCAR-4 = settings: OVCAR-4, 10 μM, 48 h
Method: as §1

OVCAR-5 = settings: OVCAR-5, 10 μM, 48 h
Method: as §1

PC-3 = settings: PC-3, 10 μM, 48 h
Method: as §1

SF-268 = settings: SF-268, 10 μM, 48 h
Method: as §1

SF-295 = settings: SF-295, 10 μM, 48 h
Method: as §1

SF-539 = settings: SF-539, 10 μM, 48 h
Method: as §1

SK-MEL-28 = settings: SK-MEL-28, 10 μM, 48 h
Method: as §1

SK-MEL-5 = settings: SK-MEL-5, 10 μM, 48 h
Method: as §1

SN12C = settings: 10 μM, 48 h
Method: as §1

SNB-19 = settings: SNB-19, 10 μM, 48 h
Method: as §1

SW-620 = settings: SW-620, 10 μM, 48 h
Method: as §1

T-47D = settings: T-47D, 10 μM, 48 h
Method: as §1

TK-10 = settings: TK-10, 10 μM, 48 h
Method: as §1

UACC-257 = settings: UACC-257, 10 μM, 48 h
Method: as §1

Row | SMILES | Growth Percent (786-0) [%] | Growth Percent (A549/ATCC) [%] | Growth Percent (ACHN) [%] | Growth Percent (BT-549) [%] | Growth Percent (CAKI-1) [%] | Growth Percent (CCRF-CEM) [%] | Growth Percent (DU-145) [%] | Growth Percent (HCC-2998) [%] | Growth Percent (HCT-116) [%] | Growth Percent (HCT-15) [%] | Growth Percent (HL-60(TB)) [%] | Growth Percent (HOP-62) [%] | Growth Percent (HS 578T) [%] | Growth Percent (HT29) [%] | Growth Percent (K-562) [%] | Growth Percent (KM-12) [%] | Growth Percent (MALME-3M) [%] | Growth Percent (MCF7) [%] | Growth Percent (MDA-MB-231/ATCC) [%] | Growth Percent (MDA-MB-435) [%] | also measured
1 | C[C@H]1[C@@H]2[C@H]3CC[C@@H]4[C@@]5(C)CC[C@H](O)C(C)(C)[C@@H]5CC[C@@]4(C)[C@]3(C)CC[C@]23CO[C@@]1(C)C(C(=O)/C=C/c1cccnc1)C3 (some centres unmarked) [Compound 4] | 63.59 | 57.76 | 41.58 | 57.24 | 55.59 | 30.84 | 73.94 | 69.92 | 14.40 | 38.53 | 47.50 | 81.73 | 81.98 | 99.49 | 17.96 | 54.39 | 54.41 | 23.65 | 82.10 | 34.50 | Growth Percent (MDA-MB-468): 20.53%; Growth Percent (NCI-H226): 76.56%; Growth Percent (NCI-H322M): 88.41%; Growth Percent (NCI-H460): 40.71%; Growth Percent (NCI-H522): 37.96%; Growth Percent (NCI/ADR-RES): 78.87%; Growth Percent (OVCAR-4): 49.03%; Growth Percent (OVCAR-5): 120.62%; Growth Percent (PC-3): 21.26%; Growth Percent (SF-268): 81.93%; Growth Percent (SF-295): 79.88%; Growth Percent (SF-539): 77.76%; Growth Percent (SK-MEL-28): 66.23%; Growth Percent (SK-MEL-5): 37.02%; Growth Percent (SN12C): 62.68%; Growth Percent (SNB-19): 71.61%; Growth Percent (SW-620): 32.25%; Growth Percent (T-47D): 30.20%; Growth Percent (TK-10): 31.89%; Growth Percent (UACC-257): 49.29%
2 | CC(=O)O[C@H]1CC[C@]2(C)[C@H]3CC[C@@H]4[C@H]5[C@H](C)[C@@]6(C)OC[C@]5(CC[C@@]4(C)[C@]3(C)CC[C@H]2C1(C)C)CC6C(C)=O (some centres unmarked) [Compound 1] | 97.17 | 88.63 | 86.11 | 96.17 | 74.02 | 64.97 | 99.41 | 92.22 | 41.92 | 38.30 | 39.32 | 100.79 | 98.58 | 80.13 | 39.40 | 78.19 | 81.27 | 56.74 | 88.35 | 83.22 | Growth Percent (MDA-MB-468): 57.26%; Growth Percent (NCI-H226): 91.65%; Growth Percent (NCI-H322M): 95.70%; Growth Percent (NCI-H460): 84.90%; Growth Percent (NCI-H522): 75.59%; Growth Percent (NCI/ADR-RES): 96.25%; Growth Percent (OVCAR-4): 75.77%; Growth Percent (OVCAR-5): 97.46%; Growth Percent (PC-3): 48.79%; Growth Percent (SF-268): 97.23%; Growth Percent (SF-295): 96.73%; Growth Percent (SF-539): 82.82%; Growth Percent (SK-MEL-28): 80.73%; Growth Percent (SK-MEL-5): 47.27%; Growth Percent (SN12C): 88.79%; Growth Percent (SNB-19): 88.73%; Growth Percent (SW-620): 68.02%; Growth Percent (T-47D): 74.66%; Growth Percent (TK-10): 109.75%; Growth Percent (UACC-257): 84.73%
